Earlier results as cited in patent US9493446B2, “Orexin receptor antagonists which are [ortho bi-(hetero-)aryl]-[2-(meta bi-(hetero-)aryl)-pyrrolidin-1-yl]-methanone derivatives” (Actelion Pharmaceuticals Ltd, priority 2012, dated 2016).

How the values were obtained:
humans = conditions: primary insomnia; cited from earlier work
rat [1] = conditions: cited from earlier work
rats = conditions: cited from earlier work
rat [2] = conditions: cited from earlier work; remark: listed apart in the source
[3] = system: amyloid precursor protein transgenic mice; conditions: after acute sleep restriction, APP transgenic mice; cited from earlier work
mouse = conditions: administered chronically; cited from earlier work
fasted hungry rats = fasted hungry rats exposed to food odors; cited from earlier work
rat [4] = conditions: cited from earlier work; remark: listed apart in the source
orexin-1 = orexin-1 (Homo sapiens (Human), UniProt O43613); conditions: cited from earlier work
Chain of orexin-1 (O43613 whole entry): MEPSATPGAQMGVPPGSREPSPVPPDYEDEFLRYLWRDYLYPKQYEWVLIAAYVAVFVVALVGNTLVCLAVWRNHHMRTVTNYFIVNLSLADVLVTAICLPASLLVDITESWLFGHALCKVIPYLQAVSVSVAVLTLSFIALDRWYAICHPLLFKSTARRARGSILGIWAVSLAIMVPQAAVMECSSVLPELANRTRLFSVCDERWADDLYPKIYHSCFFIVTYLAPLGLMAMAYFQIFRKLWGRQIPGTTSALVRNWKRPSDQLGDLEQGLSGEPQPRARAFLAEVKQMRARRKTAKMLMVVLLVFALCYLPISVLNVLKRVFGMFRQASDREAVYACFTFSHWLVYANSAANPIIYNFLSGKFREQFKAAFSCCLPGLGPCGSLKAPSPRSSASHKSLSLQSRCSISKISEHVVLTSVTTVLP

rodents [5] = conditions: conditioned reinforcer; cited from earlier work
rodents [6] = conditions: cited from earlier work

CNC(=O)[C@@H](c1ccccc1)N1CCc2cc(OC)c(OC)cc2[C@@H]1CCc1ccc(C(F)(F)F)cc1 [(2R)-2-{(1S)-6,7-dimethoxy-1-[2-(4-trifluoromethyl-phenyl)-ethyl]-3,4-dihydro-1H-isoquinolin-2-yl}-N-methyl-2-phenyl-acetamide]
clinical efficacy (humans): showed clinical efficacy
alertness (active wake and locomotion) (rat [1]): decrease alertness
time spent in REM and NREM sleep (rat [1]): dose-dependently increase the time spent in both REM and NREM sleep
cardiovascular responses to conditioned fear and novelty exposure (rats): attenuated cardiovascular responses to conditioned fear and novelty exposure
activity in fear-potentiated startle paradigm (rat [2]): active
brain levels of amyloid-beta and plaque deposition [3]: decreased brain levels of amyloid-beta (Aβ) as well as Aβ plaque deposition
antidepressant-like activity (mouse): induce antidepressant-like activity
natural activation induced by orexin A (fasted hungry rats): attenuate the natural activation induced by orexin A
pharmacological activity in nicotine self-administration (rat [4]): displayed pharmacological activity

Cc1nc(C(=O)N2CCC[C@H]2Cc2nnc(-c3ccccc3)o2)c(-c2ccccc2F)s1 [1-(5-(2-fluoro-phenyl)-2-methyl-thiazol-4-yl)-1-[(S)-2-(5-phenyl-[1,3,4]oxadiazol-2-ylmethyl)-pyrrolidin-1-yl)-methanone]
orexin receptor selectivity (orexin-1): highly orexin-1 selective

Cn1c(SCC(=O)N2CCC[C@H]2C(=O)Nc2ccccc2-c2ccccc2)nc2ccccc21 [N-Biphenyl-2-yl-1-{[(1-methyl-1H-benzimidazol-2-yl)sulfanyl]acetyl}-L-prolinamide]
nicotine-reinstatement (rodents [5]): inhibited nicotine-reinstatement for a conditioned reinforcer
behavioral and molecular changes induced by repeated amphetamine (rodents [6]): reduced behavioral (locomotor sensitization) and molecular (transcriptional responses) changes
